# Data as given in patent publication US10196364B2, “Pyrimidine carboxamides as sodium channel blockers” (Purdue Pharma L.P., priority 2013, dated 2019).
# Key:
# [1] = system: SNL-induced mechanical hyperalgesia; assay: SNL-induced mechanical hyperalgesia model in rats (paw pressure test, PWT); assay type: in vivo, rat; conditions: dosed orally at 100 mg/kg (vehicle: 0.5% methyl cellulose) one hour before testing
# Protocol: Each experiment uses rats weighing between 200-260 g at the start of the experiment. The rats are group-housed and have free access to food and water at all times, except prior to oral administration of a test compound when food is removed for 16 h before dosing. A control group acts as a comparison to rats treated with a Compound of the Disclosure. The control group is administered the carrier as used for the test compound. The volume of carrier administered to the control group is the same as the volume of carrier and test compound administered to the test group. In the Chung model, the spinal nerve ligation (SNL) model of neuropathic pain is used to produce mechanical hyperalgesia, thermal hyperalgesia, and tactile allodynia in rats. Surgery is performed under isoflurane/O2 inhalation anesthesia. Following induction of anesthesia a 3 cm incision is made and the left paraspinal muscles are separated from the spinous process at the L4-S2 levels. The L6 transverse process is carefully removed with a pair of small rongeurs to identify visually the L4-L6 spinal nerves. […] The animals are assessed for response to noxious mechanical stimuli by determining PWT, as described below, prior to surgery (baseline), then immediately prior to and 1, 3, and 5 hours after being administered a Compound of the Disclosure or vehicle, for the left rear paw of the animal. The animals can also be assessed for response to noxious thermal stimuli or for tactile allodynia, as described below. […] Sensitivity to noxious mechanical stimuli was measured in animals using the paw pressure test to assess mechanical hyperalgesia. In rats, hind paw withdrawal thresholds (“PWT”), measured in grams, in response to a noxious mechanical stimulus were determined using an analgesymeter (Model 7200, commercially available from Ugo Basile of Italy), as described in Stein (Biochemistry & Behavior 31: 451-455 (1988)). […] PWT was determined once for each rat at each time point. PWT can be measured only in the injured paw, or in both the injured and non-injured paw. […]
# human Nav1.7 = human Nav1.7 (Homo sapiens, UniProt Q15858); assay: FLIPR membrane potential dye assay (alternative fluorescence assay) in Nav1.7 expressing cells; assay type: cell-based; conditions: Table 7
# hNav1.7 = hNav1.7 (Homo sapiens, UniProt Q15858); assay: Electrophysiology (EP) whole-cell patch clamp assay in hNav1.7 expressing HEK-293 cells; assay type: cell-based; conditions: Table 7; affinity for inactivated channels; read-out: Nav1.7 Activity (μM) EP assay Ki
# Protocol: The hNav1.7 expressing HEK-293 cells were plated on 35 mm culture dishes pre-coated with poly-D-lysine in standard DMEM culture media (Mediatech, Inc., Herndon, Va.) and incubated in a 5% CO2 incubator at 37° C. Cultured cells were used approximately 12-48 h after plating.
# On the day of experimentation, the 35 mm dish was placed on the stage of an inverted microscope equipped with a perfusion system that continuously perfuses the culture dish with fresh recording media. A gravity driven superfusion system was used to apply test solutions directly to the cell under evaluation. This system consists of an array of glass pipette glass connected to a motorized horizontal translator. The outlet of the shooter was positioned approximately 100 μm from the cell of interest.
# Whole cell currents were recorded using the whole-cell patch clamp configuration using an Axopatch 200B amplifier (Axon Instruments, Foster City Calif.), 1322A A/D converter (Axon Instruments) and pClamp software (v. 8; Axon Instruments) and stored on a personal computer. Gigaseals were formed and the whole-cell configuration was established in voltage clamp mode, and membrane currents generated by hNav1.7 were recorded in gap-free mode. Borosilicate glass pipettes have resistance values between 1.5 and 2.0 MΩ when filled with pipette solution and series resistance (<5 MΩ) was compensated 75-80%. Signals were sampled at 50 kHz and low pass filtered at 3 kHz.
# After establishing the whole-cell configuration in voltage clamp mode, two voltage protocols were run to establish: 1) the holding potential; and 2) the test potential for each cell.
# To determine a membrane potential at which the majority of channels are in the resting state, a standard steady-state inactivation (SSIN) protocol was run using 100 ms prepulses×10 mV depolarizing steps. The holding potential for testing resting block (Vh1) was 20 mV more hyperpolarized than the first potential where inactivation is observed with the inactivation protocol.
# From this holding potential a standard I-V protocol was run to determine the potential at which the maximal current (Imax) was elicited. This potential was the test potential (Vt).
# The compound testing protocol was a series of 10 ms depolarizations from the Vh1 (determined from the SSIN) to the Vt (determined from the I-V protocol) repeated every 10-15 seconds. […] Washout of the compound was attempted by superfusing with control solution once steady-state block was observed. The fractional response was calculated as follows: FR=I(after drug)/I(control), where I is the peak current amplitude and was used for estimating resting block dissociation constant, Kr: Kr=[drug]*{FR/(1−FR)}, where [drug] is the concentration of a drug.
# To assess the block of inactivated channels the holding potential was depolarized such that 20-50% of the current amplitude was reduced when pulsed to the same Vt as above. The magnitude of this depolarization depends upon the initial current amplitude and the rate of current loss due to slow inactivation. This was the second holding potential (Vh2). The current reduction was recorded to determine the fraction of available channels at this potential (h). h=I@Vh2/Imax.
# At this membrane voltage a proportion of channels are in the inactivated state, and thus inhibition by a blocker includes interaction with both resting and inactivated channels.
# To determine the potency of the test compound on inactivated channels, a series of currents were elicited by 10 ms voltage steps from Vh2 to Vt every 10-15 seconds. After establishing a stable baseline, the low concentration of the compound was applied. Multiple cumulative concentrations may have to be applied to identify a concentration that will block between 40-60% of the current. Washout was attempted to re-establish baseline. Fractional responses were measured with respect to a projected baseline to determine Kapp. Kapp=[drug]*{FR/(1−FR)}, where [drug] is the concentration of a drug. […]
# Nav1.8 = Nav1.8 (Homo sapiens, UniProt Q9Y5Y9); conditions: read-out: TTX IC50; cited from earlier work
# Nav1.3 = Nav1.3 (Homo sapiens, UniProt Q9NY46); conditions: read-out: TTX IC50; cited from earlier work
# Nav1.3, sequence (Q9NY46 whole entry, looked up): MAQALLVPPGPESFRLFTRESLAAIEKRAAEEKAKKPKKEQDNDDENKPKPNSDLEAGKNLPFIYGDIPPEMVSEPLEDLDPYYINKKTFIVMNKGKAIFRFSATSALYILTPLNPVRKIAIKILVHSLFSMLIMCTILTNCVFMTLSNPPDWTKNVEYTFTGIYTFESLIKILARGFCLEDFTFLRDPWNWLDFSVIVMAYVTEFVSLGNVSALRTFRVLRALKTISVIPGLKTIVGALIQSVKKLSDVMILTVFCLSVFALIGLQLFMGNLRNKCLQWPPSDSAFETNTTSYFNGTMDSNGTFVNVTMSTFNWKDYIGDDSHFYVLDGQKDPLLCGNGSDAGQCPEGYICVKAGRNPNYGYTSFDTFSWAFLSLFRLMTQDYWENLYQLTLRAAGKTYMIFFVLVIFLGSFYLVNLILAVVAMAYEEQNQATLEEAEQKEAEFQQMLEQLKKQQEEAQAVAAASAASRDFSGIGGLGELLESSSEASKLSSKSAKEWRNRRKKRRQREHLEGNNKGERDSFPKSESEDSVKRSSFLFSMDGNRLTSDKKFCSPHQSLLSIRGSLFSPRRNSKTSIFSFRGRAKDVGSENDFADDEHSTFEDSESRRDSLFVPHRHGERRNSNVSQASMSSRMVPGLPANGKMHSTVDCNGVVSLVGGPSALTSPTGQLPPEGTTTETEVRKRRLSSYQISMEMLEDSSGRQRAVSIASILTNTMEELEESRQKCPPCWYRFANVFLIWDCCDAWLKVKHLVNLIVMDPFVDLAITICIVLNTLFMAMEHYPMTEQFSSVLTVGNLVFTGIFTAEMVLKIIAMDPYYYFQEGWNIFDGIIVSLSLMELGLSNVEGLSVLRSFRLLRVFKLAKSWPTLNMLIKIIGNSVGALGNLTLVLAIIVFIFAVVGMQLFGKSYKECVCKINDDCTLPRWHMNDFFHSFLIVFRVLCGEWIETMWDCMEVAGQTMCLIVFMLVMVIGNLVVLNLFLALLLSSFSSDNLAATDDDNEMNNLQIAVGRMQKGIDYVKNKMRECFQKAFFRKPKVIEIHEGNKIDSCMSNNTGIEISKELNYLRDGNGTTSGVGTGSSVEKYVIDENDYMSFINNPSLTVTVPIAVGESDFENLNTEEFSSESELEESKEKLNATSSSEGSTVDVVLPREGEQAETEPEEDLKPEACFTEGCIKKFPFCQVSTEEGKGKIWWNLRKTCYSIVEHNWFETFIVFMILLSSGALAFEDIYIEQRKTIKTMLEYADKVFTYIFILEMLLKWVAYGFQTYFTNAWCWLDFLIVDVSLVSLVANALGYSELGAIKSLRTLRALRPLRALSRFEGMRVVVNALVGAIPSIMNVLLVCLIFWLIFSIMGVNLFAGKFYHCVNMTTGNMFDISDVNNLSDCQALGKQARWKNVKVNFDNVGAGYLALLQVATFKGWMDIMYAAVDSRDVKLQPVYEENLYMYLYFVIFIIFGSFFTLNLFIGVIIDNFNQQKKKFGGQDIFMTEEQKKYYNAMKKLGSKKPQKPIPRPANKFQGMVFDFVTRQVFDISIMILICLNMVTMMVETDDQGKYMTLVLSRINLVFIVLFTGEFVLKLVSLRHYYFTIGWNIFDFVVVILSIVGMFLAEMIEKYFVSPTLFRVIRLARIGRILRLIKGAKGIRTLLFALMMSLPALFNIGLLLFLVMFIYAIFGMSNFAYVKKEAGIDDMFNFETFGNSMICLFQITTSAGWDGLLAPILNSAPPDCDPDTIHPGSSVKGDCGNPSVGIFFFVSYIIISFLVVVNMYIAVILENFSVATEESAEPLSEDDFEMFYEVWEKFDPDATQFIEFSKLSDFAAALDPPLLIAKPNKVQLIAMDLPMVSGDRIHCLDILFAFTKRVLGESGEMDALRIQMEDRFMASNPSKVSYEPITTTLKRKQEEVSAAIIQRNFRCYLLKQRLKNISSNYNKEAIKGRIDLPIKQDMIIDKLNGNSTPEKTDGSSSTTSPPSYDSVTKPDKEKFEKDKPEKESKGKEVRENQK
# Nav1.8, sequence (Q9Y5Y9 whole entry, looked up): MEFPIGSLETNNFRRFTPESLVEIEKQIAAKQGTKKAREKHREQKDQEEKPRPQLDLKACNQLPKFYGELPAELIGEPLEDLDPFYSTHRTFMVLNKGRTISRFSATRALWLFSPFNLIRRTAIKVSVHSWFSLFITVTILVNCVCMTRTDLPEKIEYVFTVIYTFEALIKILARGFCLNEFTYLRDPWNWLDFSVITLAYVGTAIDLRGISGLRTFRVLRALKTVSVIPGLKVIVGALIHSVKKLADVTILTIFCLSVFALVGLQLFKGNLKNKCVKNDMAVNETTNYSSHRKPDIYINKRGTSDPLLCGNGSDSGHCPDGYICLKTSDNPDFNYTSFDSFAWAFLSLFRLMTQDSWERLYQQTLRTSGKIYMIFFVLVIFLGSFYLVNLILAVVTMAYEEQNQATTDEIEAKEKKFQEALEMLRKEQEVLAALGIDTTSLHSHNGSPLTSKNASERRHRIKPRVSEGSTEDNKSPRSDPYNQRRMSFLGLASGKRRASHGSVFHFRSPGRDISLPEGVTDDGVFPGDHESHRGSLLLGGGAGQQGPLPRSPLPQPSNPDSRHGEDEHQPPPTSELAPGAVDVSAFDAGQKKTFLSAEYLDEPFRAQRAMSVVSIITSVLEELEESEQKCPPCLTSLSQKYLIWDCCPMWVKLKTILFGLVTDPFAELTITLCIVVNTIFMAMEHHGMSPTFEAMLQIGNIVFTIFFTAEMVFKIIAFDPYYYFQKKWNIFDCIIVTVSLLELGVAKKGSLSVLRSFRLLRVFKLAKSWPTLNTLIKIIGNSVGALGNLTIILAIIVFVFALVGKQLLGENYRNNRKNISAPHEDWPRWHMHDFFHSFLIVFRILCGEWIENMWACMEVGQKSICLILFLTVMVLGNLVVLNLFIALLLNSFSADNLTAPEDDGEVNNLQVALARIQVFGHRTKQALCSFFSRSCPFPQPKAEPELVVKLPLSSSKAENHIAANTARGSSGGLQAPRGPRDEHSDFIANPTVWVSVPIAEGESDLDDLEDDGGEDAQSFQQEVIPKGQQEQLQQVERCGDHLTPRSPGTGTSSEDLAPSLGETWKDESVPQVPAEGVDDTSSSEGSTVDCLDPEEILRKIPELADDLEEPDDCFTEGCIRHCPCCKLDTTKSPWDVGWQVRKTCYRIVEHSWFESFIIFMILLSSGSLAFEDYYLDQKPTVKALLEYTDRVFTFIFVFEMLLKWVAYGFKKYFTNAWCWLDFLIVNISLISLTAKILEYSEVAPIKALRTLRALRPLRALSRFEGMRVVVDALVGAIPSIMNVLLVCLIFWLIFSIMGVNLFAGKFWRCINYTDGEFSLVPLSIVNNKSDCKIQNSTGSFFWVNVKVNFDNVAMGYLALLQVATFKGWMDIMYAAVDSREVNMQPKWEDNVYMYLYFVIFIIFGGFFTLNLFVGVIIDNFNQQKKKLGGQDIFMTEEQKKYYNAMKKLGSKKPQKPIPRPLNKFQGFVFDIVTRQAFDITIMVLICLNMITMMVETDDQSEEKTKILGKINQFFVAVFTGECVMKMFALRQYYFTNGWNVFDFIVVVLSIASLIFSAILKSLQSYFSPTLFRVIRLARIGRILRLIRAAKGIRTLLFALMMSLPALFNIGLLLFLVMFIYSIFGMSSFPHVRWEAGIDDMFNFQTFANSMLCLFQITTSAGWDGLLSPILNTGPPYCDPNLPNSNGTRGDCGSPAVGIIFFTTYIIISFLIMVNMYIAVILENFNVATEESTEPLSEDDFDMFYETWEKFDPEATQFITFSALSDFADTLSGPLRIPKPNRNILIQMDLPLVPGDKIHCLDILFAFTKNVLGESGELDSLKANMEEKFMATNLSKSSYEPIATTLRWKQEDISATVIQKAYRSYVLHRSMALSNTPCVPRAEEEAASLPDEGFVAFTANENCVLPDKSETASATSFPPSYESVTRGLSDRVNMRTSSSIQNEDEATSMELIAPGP
smiles,measurement,setting,value
"C[C@H](Nc1cc(C(N)=O)nc(-c2ccc(Oc3ccc(OC(F)(F)F)cc3)cc2)n1)C(N)=O [Cpd No. 84, (S)-6-((1-amino-1-oxopropan-2-yl)amino)-2-(4-(4-(trifluoromethoxy)phenoxy)phenyl)pyrimidine-4-carboxamide]",SNL-induced mechanical hyperalgesia in rats,[1],reduced SNL-induced mechanical hyperalgesia
"NC(=O)c1cc(O[C@H]2CCNC2=O)nc(-c2ccc(Oc3ccc(C4CC4)cn3)cc2)n1 [Cpd No. 234, (S)-2-(4-((5-cyclopropylpyridin-2-yl)oxy)phenyl)-6-((2-oxopyrrolidin-3-yl)oxy)-pyrimidine-4-carboxamide]",IC50,human Nav1.7,1.2 µM
same,Ki,hNav1.7,0.67 µM
"NC1=N[C@H](O)[C@H]2[C@H]3O[C@]4(O)O[C@@H]([C@@H](O)[C@@]2(N1)[C@@H]4O)[C@]3(O)CO [TTX, tetrodotoxin]",IC50,Nav1.8,50000 nM
same,IC50,Nav1.3,15 nM
C[C@H](Oc1cc(C(N)=O)nc(-c2ccc(Oc3ccc(C(F)(F)F)cc3)cc2)n1)C(N)=O [compound 98],SNL-induced mechanical hyperalgesia in rats,[1],reduced SNL-induced mechanical hyperalgesia
"NC(=O)c1cc(N[C@H]2CCNC2=O)nc(-c2ccc(Oc3ccc(C(F)(F)F)cn3)cc2)n1 [compound 99, (S)-6-((2-oxopyrrolidin-3-yl)amino)-2-(4-((5-(trifluoromethyl)pyridin-2-yl)oxy)phenyl)pyrimidine-4-carboxamide]",SNL-induced mechanical hyperalgesia in rats,[1],reduced SNL-induced mechanical hyperalgesia
